# Source: patent publication US20110230367A1, “Amphiphilic Peptides Promoting Production of Target miRNA and Method of Regulating Production of Target miRNA” (SNU R&DB FOUNDATION, priority 2009, published 2011)
# Entries after “also recorded” stand apart in the source; their conditions may differ. Like-named read-outs stand apart in the source and are kept apart here.
# Assays:
# HBV (hairpin RNA) = assay: Dissociation constant by competitive fluorescence anisotropy with rhodamine-rev peptide probe; assay type: binding; conditions: Table 6
# Procedure: (§1) The binding affinity between the peptide synthesized in <Example 1> and pre-miRNA from <Example 2> were measured by fluorescence anisotropy using competitive binding method. A rev peptide with rhodamine attached at the N-terminal was used as a fluorescent probe and LS-55 luminescence spectrometer from Perkin-Elmer was use for analysis. A constant temperature of 20° C. was maintained by a water bath. The fluorescent intensity was measured by of 200 nM of rhodamine-rev peptide was measured with an excitation wavelength at 550 nm (band path 10 nm) and detection at 580 nm (band path 10 nm). The integration time […]. Each experimental value is the mean value of 5 measurements. A 20 mM of HEPES{4-(2-hydroxyethyl)-1-piperazineethanesulfonic acid} buffer (pH 7.5) containing 140 mM NaCl, 5 mM KCl and 1 mM MgCl2 was used for measuring the dissociation constant. The dissociation constant was determined according to the Mathematical Formula 1 and using Kaledia graph.
# (§2) A and Ao are the fluorescence anistropy in the presence or absence of RNA, whereas ΔA is the difference between these two values. [RNA]0 and [Rh-rev]0 are initial concentrations of RNA and rev peptide binding with rhodamine.
# (§3) According the method described in <Example 3>, the dissociation constant between second generation peptide and 2 pre-miRNAs synthesized from <Example 2> was determined using fluorescent polarization detection method and fluorescent probe molecule.
# IRES (hairpin RNA) = assay: as above; assay type: binding; conditions: Table 6
# Procedure: as §1, §2, §3
# pre-let7a-1 = assay: as above; assay type: binding; conditions: for Discrimination ratio pre-let7a-1 (in parenthesis): Kd against other RNA (HBV, IRES, other miRNAs)/Kd against target miRNA
# Procedure: as §1, §2, §3
# pre-miR16-1 = assay: as above; assay type: binding; conditions: for Discrimination ratio pre-miR16-1 (in parenthesis): Kd against other RNA/Kd against target miRNA
# Procedure: as §1, §2, §3
# pre-miR24-1 = assay: as above; assay type: binding; conditions: Table 6; for Discrimination ratio pre-miR24-1 (in parenthesis): Kd against other RNA/Kd against target miRNA
# Procedure: as §1, §2, §3
# [1] = system: mature miR16-1 in HCT116 cells; assay: Production of mature miRNA in HCT116 cells by northern blotting; assay type: cell-based; conditions: 2 μM peptide, 3 hrs, FIG. 4
# Procedure: The HCT116 cell was purchased from American Type Culture Collection (ATCC) and was cultured in RPMI1640 medium at 37° C., under 5% CO2. Total RNA was extracted using Trizol reagent (Invitrogen) according to the manufactures recommended protocol.
# The change in RNA amount was analyzed by culturing the cells with 2 μM concentration of peptide 2b or peptide 2c and with lipofectamine.
# HCT116 cells were treated with 2 μM of peptide 2b, 2c, 1e or 0.2 μg/ml of doxorubicin for 3 hrs before analyzing the production of mature miRNA in total RNA using northern blotting. The 18S rRNA band intensity was used as the loading control. […] Peptide 1e was used as a negative control. Decade marker (Ambion) and 10˜20 μg of total RNA were separated by using 12.5% polyacrylamide gel containing 7M urea in 20 mM of 3-(N-morpholino)propanesulfonic acid (MOPS)-NaOH(pH 7.0) buffer at 350V for 2 hrs. RNA blotting was performed by chemical cross-linking method. Each of the separated RNA was transferred with the neutral nylon membrane (Hybond NX, Amersham/Pharmacia) and crosslinked to the membrane using 1-ethyl-3-(3-dimethylaminopropyl)carbodiimide (EDC). The membrane was prehybridized with the hybridization buffer (Clontech, CA, USA) containing 50 μl of 10 mg/ml of salmon sperm DNA. Next, the isotope labeled probe DNA which is complementary to the miRNA sequence was hybridized for 2 hrs in the same buffer condition.
# The probe was isotope labeled with 25 μCi of [γ-^32P] ATP (New England Biolabs) and 5 units of polynucleotide kinase (New England Biolabs). The probe was ethanol precipitated and dissolved in 50 μl of DEPC treated water for use. The membrane was washed twice for 30 min with 200 ml of wash buffer containing 0.3 M NaCl, 0.03 M sodium citrate and 0.05% sodium dodecyl sulfate (SDS)(pH 7.0), then washed twice for 15 min with 200 ml of wash buffer containing 0.015 M NaCl, 0.0015 M sodium citrate and 0.1% SDS(pH 7.0). The membrane was exposed on the phosphorimager screen and each of the band intensity was detected by FLA-3000 and analyzed by using MultiGauge Ver. 3.0 software (Fuji Photo).
# [2] = Table 5, second generation peptides, read-out: Kd value against pre-let7a-1
# [3] = Table 6, read-out: Kd pre-let7a-1
# [4] = Table 5, second generation peptides, read-out: Kd value against pre-miR16-1
# [5] = Table 6, read-out: Kd pre-miR16-1
sequence,measurement,setting,value
"WKKLLKLLKKWLKLAG [Peptide 2c, Ac-WKKLLKLLKKWLKLAG, 14]",Kd,HBV (hairpin RNA),0.46 nM
same,Kd,IRES (hairpin RNA),0.46 nM
same,Kd,pre-let7a-1; [2],0.15 nM
same,Discrimination ratio pre-let7a-1 (in parenthesis),pre-let7a-1; Table 6,2.8
same,Kd,pre-let7a-1; [3],0.15 nM
same,binding with pre-miR16-1,pre-miR16-1,first and second strongest binding
same,Kd,pre-miR16-1; [4],0.27 nM
same,Discrimination ratio pre-miR16-1 (in parenthesis),pre-miR16-1; Table 6,1.4
same,Kd,pre-miR16-1; [5],0.27 nM
same,Kd,pre-miR24-1,0.88 nM
same,Discrimination ratio pre-miR24-1 (in parenthesis),pre-miR24-1,0.41
"WKKLLKWLKKLLKLAG [Peptide 2b, Ac-WKKLLKWLKKLLKLAG, 13]",Kd,HBV (hairpin RNA),0.9 nM
same,Kd,IRES (hairpin RNA),1 nM
same,binding with pre-let7a-1,pre-let7a-1,strong binding; also recorded: strongest binding
same,Kd,pre-let7a-1; [2],0.067 nM
same,Discrimination ratio pre-let7a-1 (in parenthesis),pre-let7a-1; Table 6,11
same,Kd,pre-let7a-1; [3],0.067 nM
same,discrimination ratio for pre-let7a-1,pre-let7a-1; mean Kd against all hairpin pre-miRNA/Kd against target pre-miRNA,11
same,binding with pre-miR16-1,pre-miR16-1,first and second strongest binding
same,Kd,pre-miR16-1; [4],0.22 nM
same,Discrimination ratio pre-miR16-1 (in parenthesis),pre-miR16-1; Table 6,1.1
same,Kd,pre-miR16-1; [5],0.22 nM
same,Kd,pre-miR24-1,0.43 nM
same,Discrimination ratio pre-miR24-1 (in parenthesis),pre-miR24-1,1.5
same,level of mature miR16-1,[1],increased
